Assay results as given in US20240384268A1, “Oligonucleotides” (Hudson Institute of Medical Research, priority 2021, published 2024).
In the oligonucleotide strings, read from the 5' end, every base follows the letter of its sugar. An asterisk marks phosphorothioate; unmarked linkages are phosphodiester. Other units and linkages are bracketed, terminal groups are in braces. A string of capitals states the bases alone. m = 2'-O-methyl

Biological target: T1, human TLR9 (Homo sapiens, UniProt Q9NR96)
T1 construct: HA; host or cells: 293XL-hTLR9-HA (HEK293)
T1 sequence (Q9NR96 26-1032): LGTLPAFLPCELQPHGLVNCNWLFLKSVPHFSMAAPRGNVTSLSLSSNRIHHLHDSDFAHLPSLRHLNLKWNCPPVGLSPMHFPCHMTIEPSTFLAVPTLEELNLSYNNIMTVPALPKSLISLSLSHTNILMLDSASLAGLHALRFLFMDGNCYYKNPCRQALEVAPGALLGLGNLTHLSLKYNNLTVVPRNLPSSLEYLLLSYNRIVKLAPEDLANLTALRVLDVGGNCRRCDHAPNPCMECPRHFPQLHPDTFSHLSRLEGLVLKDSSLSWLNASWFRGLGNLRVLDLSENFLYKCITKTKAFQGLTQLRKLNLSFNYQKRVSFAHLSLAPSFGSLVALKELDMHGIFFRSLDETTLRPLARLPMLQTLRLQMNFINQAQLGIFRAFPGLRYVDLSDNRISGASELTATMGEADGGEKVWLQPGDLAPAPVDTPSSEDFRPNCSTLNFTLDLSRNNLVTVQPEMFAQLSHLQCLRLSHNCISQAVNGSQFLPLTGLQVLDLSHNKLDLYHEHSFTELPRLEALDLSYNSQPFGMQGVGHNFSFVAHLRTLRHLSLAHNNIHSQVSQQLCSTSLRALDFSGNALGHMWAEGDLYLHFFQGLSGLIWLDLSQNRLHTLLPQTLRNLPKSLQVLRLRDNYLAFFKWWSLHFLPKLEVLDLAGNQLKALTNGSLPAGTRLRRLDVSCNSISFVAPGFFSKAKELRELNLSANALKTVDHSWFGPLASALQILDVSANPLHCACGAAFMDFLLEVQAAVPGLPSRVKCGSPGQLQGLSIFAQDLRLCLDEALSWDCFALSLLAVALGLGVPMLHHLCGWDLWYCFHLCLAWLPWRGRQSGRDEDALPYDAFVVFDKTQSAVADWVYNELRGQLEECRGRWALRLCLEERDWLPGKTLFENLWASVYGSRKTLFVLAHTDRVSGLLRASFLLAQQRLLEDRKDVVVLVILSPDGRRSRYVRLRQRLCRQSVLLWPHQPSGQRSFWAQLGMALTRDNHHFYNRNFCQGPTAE
Assay: HEK-TLR9 NF-κB-luciferase reporter, ODN2006 stimulation
Assay type: cell-based
Conditions: for TLR9 2 uM: 3mer 2'OMe ASO at 2 uM, HEK-TLR9, value relative to Ligand only = 1.000, NT = 0.000; for TLR9 100 nM (averaged NF-κB-Luciferase level relative to ODN2006 condition): ASO 100 nM; for TLR9 100 nM (averaged NF-κB-Luciferase level relative to ODN2006 condition) / TLR9 500 nM (averaged NF-κB-Luciferase level relative to ODN2006 condition): relative to ODN2006 only, given as fraction; for TLR9 500 nM (averaged NF-κB-Luciferase level relative to ODN2006 condition): ASO 500 nM

Sequence | TLR9 2 uM | TLR9 100 nM (averaged NF-κB-Luciferase level relative to ODN2006 condition) | TLR9 500 nM (averaged NF-κB-Luciferase level relative to ODN2006 condition)
AAU (antisense mA*mA*mU) | 0.884 | – | –
ACACTTCGTGGGGTCC (antisense; LNA-modified, pattern not given here) [HPRT LNA-665 V1] | – | 0.241 | 0.001
ACU (antisense mA*mC*mU) | 0.996 | – | –
AGU (antisense mA*mG*mU) | 0.840 | – | –
AUA (antisense mA*mU*mA) | 0.944 | – | –
AUG (mA*mU*mG) | 0.878 | – | –
AUU (mA*mU*mU) | 0.864 | – | –
CAACACTTCGTGGGGT (antisense; LNA-modified, pattern not given here) [HPRT LNA-667 V1] | – | 0.733 | 0.395
CAU (mC*mA*mU) | 0.921 | – | –
CCAAGATCAGCAGTCT (antisense; LNA-modified, pattern not given here) [CTNN2B-2341 LNA KL] | – | 1.424 | 0.669
CCATCCATGAGGTCCT (antisense; LNA-modified, pattern not given here) [CTNN2B-2545 LNA V1] | – | 1.383 | 0.476
CCU (mC*mC*mU) | 1.180 | – | –
CGU (mC*mG*mU) | 1.237 | – | –
CUA (mC*mU*mA) | 1.182 | – | –
CUC (mC*mU*mC) | 0.966 | – | –
CUG (mC*mU*mG) | 0.948 | – | –
GATAGCACCTTCAGCA (antisense; LNA-modified, pattern not given here) [CTNN2B-1294 LNA KL] | – | 0.804 | 0.560
GCAGGCTCAGTGATGT (antisense; LNA-modified, pattern not given here) [CTNN2B-1642 LNA V1] | – | 1.036 | 0.228
GCATCCACCACGTCGT (antisense; LNA-modified, pattern not given here) [EGFR-3267 LNA V1] | – | 0.556 | 0.375
GCCATCCACTTGATAG (antisense; LNA-modified, pattern not given here) [EGFR-2874 LNA V1] | – | 0.772 | 0.589
GCCATGCTGGCTCGGA (antisense; LNA-modified, pattern not given here) [CAMSAP1-2584 LNA V1] | – | 0.879 | 0.147
GCCATGTTTCTTCTTG (antisense; LNA-modified, pattern not given here) [MB21D1-1248 LNA KL] | – | 0.163 | 0.070
GCU (mG*mC*mU) | 1.429 | – | –
GGCTGGAATCCGAGTT (antisense; LNA-modified, pattern not given here) [EGFR-4705 LNA KL] | – | 1.051 | 0.492

Sequence | TLR9 2 uM | TLR9 100 nM (averaged NF-κB-Luciferase level relative to ODN2006 condition) | TLR9 500 nM (averaged NF-κB-Luciferase level relative to ODN2006 condition)
GGTTACGGCTCAGTAT (antisense; LNA-modified, pattern not given here) [CAMSAP1-4295 LNA KL] | – | 0.943 | 0.400
GGU (mG*mG*mU) | 1.177 | – | –
GTATCGAAAGAGTCTG (antisense; LNA-modified, pattern not given here) [EGFR-3908 LNA KL] | – | 1.429 | 0.647
GTCCCCTGTTGACTGG (antisense; LNA-modified, pattern not given here) [HPRT LNA-489 KL] | – | 0.387 | 0.326
GTCTTGGCTTCGTGGA (antisense; LNA-modified, pattern not given here) [MB21D1-522 LNA V1] | – | 0.745 | 0.392
GTGTCTGGAAGCTTCC (antisense; LNA-modified, pattern not given here) [CTNN2B-809 LNA V1] | – | 0.493 | 0.613
GTTCAGTCCTGTCCAT (antisense; LNA-modified, pattern not given here) [HPRT LNA-292 V1] | – | 1.081 | 0.382
TCCAACACTTCGTGGG (antisense; LNA-modified, pattern not given here) [HPRT LNA-669 V1] | – | 0.623 | 0.473
TCGTAGTTGCTTCCTA (antisense; LNA-modified, pattern not given here) [MB21D1-1181 LNA KL] | – | 0.987 | 0.224
TGATGGCCTCCCATCT (antisense; LNA-modified, pattern not given here) [HPRT LNA-332 V1] | – | 0.770 | 0.153
TGCACACTTCGTACCC (antisense; LNA-modified, pattern not given here) [CAMSAP1-4916 LNA V1] | – | 0.283 | 0.244
TGGCCTCCCATCTCCT (antisense; LNA-modified, pattern not given here) [HPRT LNA-329 V1] | – | 0.743 | 0.277
TGTGATGGCCTCCCAT (antisense; LNA-modified, pattern not given here) [HPRT LNA-334 V1] | – | 0.818 | 0.431
TTCGTGGGGTCCTTTT (antisense; LNA-modified, pattern not given here) [HPRT LNA-661 V1] | – | 0.963 | 0.523
TTTTGGCTGGGATCAA (antisense; LNA-modified, pattern not given here) [CAMSAP1-4697 LNA KL] | – | 0.985 | 0.169
UAA (mU*mA*mA) | 1.176 | – | –
UAC (mU*mA*mC) | 0.997 | – | –
UAG (mU*mA*mG) | 0.977 | – | –
UAU (mU*mA*mU) | 1.145 | – | –
UCC (mU*mC*mC) | 1.106 | – | –
UCU (mU*mC*mU) | 0.876 | – | –
UGC (mU*mG*mC) | 1.198 | – | –
UGU (mU*mG*mU) | 1.085 | – | –
UUA (mU*mU*mA) | 0.912 | – | –
